Measured values: PubChem BioAssay AID588576 (Sanford-Burnham Center for Chemical Genomics, 2011)
Activity calls are given as the source filed them.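 The calls were made as follows: active = an EC50 below a set limit for the caspase 9 and 3 cleavage signal; inactive = the rest.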

The compounds below were run against Caspase-3 (Homo sapiens) + Caspase-9 (Homo sapiens) (UniProt P42574+P55211) (assay: caspase-9/caspase-3 cascade activators, SAR follow-up, selectivity assay for Apaf-1 activator project, biochemical, fluorescence, LZ-caspase-9 mutant (AID 588576)). Details: recombinant LZ-caspase-9/procaspase-3, DEVD-Rh110 fluorescence, 55 min.
Caspase-3 (Homo sapiens) + Caspase-9 (Homo sapiens), sequence (P42574 whole entry, looked up): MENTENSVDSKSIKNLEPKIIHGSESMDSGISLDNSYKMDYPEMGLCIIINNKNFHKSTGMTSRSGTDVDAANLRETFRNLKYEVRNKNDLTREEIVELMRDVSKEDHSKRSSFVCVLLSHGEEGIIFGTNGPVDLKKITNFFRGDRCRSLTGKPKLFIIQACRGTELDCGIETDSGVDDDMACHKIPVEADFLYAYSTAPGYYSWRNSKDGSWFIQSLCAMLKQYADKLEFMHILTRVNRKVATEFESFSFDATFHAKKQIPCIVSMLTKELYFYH
Caspase-3 (Homo sapiens) + Caspase-9 (Homo sapiens), sequence (P55211 whole entry, looked up): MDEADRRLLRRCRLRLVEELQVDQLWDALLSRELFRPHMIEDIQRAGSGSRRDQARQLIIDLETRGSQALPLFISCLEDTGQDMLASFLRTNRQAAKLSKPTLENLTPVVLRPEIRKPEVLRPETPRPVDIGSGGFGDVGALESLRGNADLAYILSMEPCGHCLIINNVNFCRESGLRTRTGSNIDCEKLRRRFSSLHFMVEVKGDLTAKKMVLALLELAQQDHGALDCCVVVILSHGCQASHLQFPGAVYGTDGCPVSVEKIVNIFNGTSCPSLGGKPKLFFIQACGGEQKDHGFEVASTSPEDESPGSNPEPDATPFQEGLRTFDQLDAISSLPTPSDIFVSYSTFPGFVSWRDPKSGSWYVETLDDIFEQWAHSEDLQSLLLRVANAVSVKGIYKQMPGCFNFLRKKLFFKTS

SMILES | EC50
Cc1cc(NC(=O)C2CC(c3ccc(F)cc3)=NO2)n(-c2ccccc2)n1 (configuration not stated) | > 100 µM (inactive)
O=C(Nc1ccc(F)cc1F)C1CC(c2ccc(F)cc2)=NO1 (configuration not stated) | > 100 µM (inactive)
Cc1cc(C)n(C(C)CC(=O)Nc2cccnc2)n1 (configuration not stated) | > 100 µM (inactive)
O=C(c1ccco1)N1CCN(C(=O)C2CC(c3ccc(F)cc3)=NO2)CC1 (configuration not stated) | > 100 µM (inactive)
O=C(Nc1nc2ccsc2c(=O)s1)c1cccs1 | > 100 µM (inactive)
CC(Cc1c[nH]c2ccccc12)C(=O)O (configuration not stated) | > 100 µM (inactive)
CCOc1ccccc1NC(=O)CCS(=O)(=O)c1ccc2c(c1)OCCO2 | > 100 µM (inactive)
O=C(Nc1nc2ccsc2c(=O)s1)c1ccco1 | > 100 µM (inactive)
O=C1CC2(CC(c3c(F)cccc3Cl)=NO2)C(=O)N1c1ccccc1 (configuration not stated) | > 100 µM (inactive)

The next lines start with the values.

EC50 | SMILES
> 100 µM (inactive) | Cc1cc(C)n(C(C)C(C)C(=O)O)n1 (configuration not stated)
> 100 µM (inactive) | Cc1nn(Cc2ccccc2)c(C)c1CCC(=O)O
> 100 µM (inactive) | Cc1cc(C)c(O)c(N2CC(C(=O)O)CC2=O)c1 (configuration not stated)
> 100 µM (inactive) | Cc1nn(CC(C)C(=O)O)c(C)c1Br (configuration not stated)
> 100 µM (inactive) | Cc1cc(C)n(CC(C)C(=O)Nc2ccc(Cl)c(Cl)c2)n1 (configuration not stated)
> 100 µM (inactive) | O=C(O)C1CC(c2ccc(F)cc2)=NO1 (configuration not stated)
> 100 µM (inactive) | O=C(Nc1nc2ccsc2c(=O)s1)C1CCC1
> 100 µM (inactive) | Cc1c(NC(=O)C2CC(c3ccc(F)cc3)=NO2)c(=O)n(-c2ccccc2)n1C (configuration not stated)
